From US20220195487A1, “Method for Measuring Inhibition of Bacteria by Antibacterial Drug, and Bacterial Counting Device and Method Thereof” (BEIJING XINJI JINNUO MEDICAL EQUIPMENT CO.,LTD., priority 2019, published 2022) come the findings set out here.

Common to all, as to format: cell-based
Experiment [1] deals with Acinetobacter baumannii. The experiment in a line: 2 h susceptibility by resistance bacterial counter. Particulars: Example 3, resistance counting, 2 h at 37° C., 60% of the positive count value as threshold. Here is the method:
(§1) 2.2.1 Preparation of bacterial strains: In accordance with the requirements of the CLSI standards, pick each fresh strains within 24 h with a turbidity of 0.5 McFarland units in the column of strain name in Table 5;
(§2) 2.2.2 Inoculation: Take 100 μL of each bacterial suspension with a turbidity of 0.5 McFarland units and dispense to a 48-well plate with pre-configured gradient antibiotics, 500 μL dispensed in each well;
(§3) 2.2.3 Incubation and detection: Incubate for 2 h at 37° C., and measure with a resistance bacterial counter. Adjust the instrument to its best sensitivity and then count bacteria. Record the 24 h routine susceptibility results for comparative analysis.

Experiment [2] has as its system Acinetobacter baumannii. The experiment in a line: 24 h routine (conventional) drug susceptibility testing by visual observation.
Experiment [3] relates to Acinetobacter baumannii. Put plainly: rapid drug susceptibility testing of living cells (live bacteria counting, 2 h). Particulars: for Living cell counts: 2 h. The method, then: (§4) 1.2.1 Preparation of bacterial strains: in accordance with the requirements of the CLSI standards, pick each fresh strains within 24 h with a turbidity of 0.5 McFarland units in the column of strain name in Table 7.
(§5) 1.2.2 Inoculation: take 100 μL of each bacterial suspension with a turbidity of 0.5 McFarland units and dispense to a 48-well plate with pre-configured gradient antibiotics, 500 μL dispensed in each well.
(§6) 1.2.3 Incubation and detection: incubate for 2 h at 37° C., and perform live bacteria counting. Record the 24 h routine susceptibility results for comparative analysis.

Experiment [4] deals with Escherichia coli ATCC 25922. The experiment in a line: rapid susceptibility test by resistance counting method (Coulter principle). The method, then:
A method for measuring inhibition of Escherichia coli ATCC 25922 by ampicillin (by the resistance counting method).
The standard strain ATCC 25922 Escherichia coli was transferred for use later and incubated at 37° C. for 18 hours.
Ten of the drug susceptibility testing tubes (or cups) contained the required antibiotics of concentrations via doubling dilution (refer to American CLSI standards for concentrations for different drugs); the eleventh tube without antibiotics is used as a positive control (PC); the twelfth tube without bacterial suspension is used as a negative control (NC).
Prepare the bacterial strain and triturate on the wall of a vial with Mueller Hinton broth (MH for antibiotics susceptibility testing) to mix evenly, close the cap and measure the turbidity with a nephelometer (BD PhoenixSpec Nephelometer), the turbidity being 0.5 McFarland units, and set aside to be used later.
Inoculate the bacteria to be tested at an inoculum concentration specified in the CLSI (American Clinical and Laboratory Standards Institute) method for broth dilution drug susceptibility testing, and incubate in an incubator at 37° C.
Preparation of bacterial suspension: pick a spare colony to prepare bacterial suspension, the concentration of the bacterial suspension being 0.5 McFarland units. Add the colony suspension to (MH) broths containing different concentrations of various antibiotics and the content of bacteria in each tube after inoculation is 1×10∧4 cfu/mL to 5×10∧7 cfu/mL, optimally 5×10∧6 cfu/mL (colony forming units/mL), i.e. optimally 5×10∧6 colony forming units per mL.
Incubate in an incubator at 37° C., perform bacterial counting at 0 min, 10 min, 30 min, 60 min, 90 min and 120 min respectively by the resistance counting method (OMEC (Zhuhai) RC-3000 resistance (Coulter) particle counter). Measure twice, take the average value and record the data.
There were 12 tubes for testing, the eleventh tube being the positive control (PC), the twelfth tube being the negative control (NC) and the other 10 tubes being the test tubes. At each detection time point, measurements were carried out for all 12 tubes.

Experiment [5] relates to Escherichia coli ATCC 25922. Put plainly: VITEK microbial identification susceptibility system. The following applies: ATCC25922, read-out: minimum inhibitory concentration. The method, then:
(§7) In addition, the bacteria in this example were also subjected to three other methods of drug susceptibility testing, namely, measuring the inhibition of Escherichia coli ATCC 25922 in this example by ampicillin according to the operating manual of the VITEK microbial identification susceptibility system from Merieux, France, with a minimum inhibitory concentration of 4 μg/mL (micrograms per milliliter); measuring the inhibition of Escherichia coli ATCC 25922 in this example by ampicillin according to the Etest method, as detailed in the operating manual of the Etest kit from Thermo Fisher, USA, with a minimum inhibitory concentration of 2 μg/mL; and measuring the inhibition of Escherichia coli ATCC 25922 in this example by ampicillin according to broth dilution drug susceptibility testing method as specified in the broth dilution susceptibility standards by the American Clinical and Laboratory Standards Institute, with a minimum inhibitory concentration of 4 μg/mL. It can be seen that their results are all consistent and sensitive.

For experiment [6], the system named is Escherichia coli ATCC 25922. Put plainly: Etest method. Particulars: ATCC25922, read-out: minimum inhibitory concentration. Here is the method:
as §7

Experiment [7] has as its system Escherichia coli ATCC 25922. The experiment in a line: broth dilution drug susceptibility testing method (CLSI). Particulars: ATCC25922, read-out: minimum inhibitory concentration. Here is the method:
as §7
(In broth dilution the organism is exposed to a series of concentrations in liquid medium.)

Experiment [8] deals with Klebsiella pneumoniae. The experiment in a line: 2 h susceptibility by resistance bacterial counter. Particulars: Example 3, resistance counting, 2 h at 37° C., 60% of the positive count value as threshold. The method, then: as §1, §2, §3
For experiment [9], the system named is Klebsiella pneumoniae. The experiment in a line: 24 h routine (conventional) drug susceptibility testing by visual observation.
For experiment [10], the system named is Klebsiella pneumoniae. The experiment in a line: rapid drug susceptibility testing of living cells (live bacteria counting, 2 h). The following applies: for Living cell counts: 2 h. Here is the method:
as §4, §5, §6

The subject of experiment [11] is Enterococcus faecalis (ATCC29212). Put plainly: 2 h susceptibility by resistance bacterial counter. The following applies: Example 3, resistance counting, 2 h at 37° C., 60% of the positive count value as threshold. The method, then:
as §1, §2, §3

Experiment [12] shares this test system. Put plainly: 24 h routine (conventional) drug susceptibility testing by visual observation.
Experiment [13] has the same test system. The experiment in a line: rapid drug susceptibility testing of living cells (live bacteria counting, 2 h). Particulars: for Living cell counts: 2 h. The method, then:
as §4, §5, §6

Where [14] appears, read: Example 3, 24 h routine susceptibility.
The mark [15] stands for this setting: Example 4, 24 h routine susceptibility.
[16] abbreviates: Example 4, live bacteria counting, 2 h at 37° C.

≈ marks a conversion by molar mass, not a printed value.

As for `C[C@@H](O)[C@H]1C(=O)N2C(C(=O)O)=C(S[C@@H]3CN[C@H](C(=O)N(C)C)C3)[C@H](C)[C@H]12` [Meropenem], the “2 hMIC” value in experiment [1] came out at 0.12. Further, the “24 hMIC” value in experiment [2] (setting [14]) was 0.12. The MIC, conventional drug susceptibility testing in experiment [2] (setting [15]) stood at 0.12 µg/mL (≈ 0.313 µM). For the same compound, the Living cell counts in experiment [3] (0.03 μg/mL) came out at 7959 cells/μL; in experiment [3] (0.06 μg/mL), 6495 cells/μL; in experiment [3] (0.12 μg/mL), 1574 cells/μL; in experiment [3] (0.25 μg/mL) it was 1570 cells/μL; in [3] (0.5 μg/mL) it was 1514 cells/μL; in experiment [3] (1 μg/mL) it was 1490 cells/μL. In addition, the Living cell counts is listed as 1479 cells/μL in experiment [3] (2 μg/mL), 1561 cells/μL in experiment [3] (4 μg/mL), 1003 cells/μL in experiment [3] (8 μg/mL) and 979 cells/μL in experiment [3] (16 μg/mL). For the same compound, the MIC, rapid drug susceptibility testing of living cells in experiment [3] (setting [16]) worked out at 0.12 µg/mL.

In the case of `CC1(C)S[C@@H]2[C@H](NC(=O)[C@H](N)c3ccccc3)C(=O)N2[C@H]1C(=O)O` [ampicillin], the bacterial counts in experiment [4] (0 min, 0.5 μg/mL) worked out at 210 cells/μL; in [4] (0 min, 1 μg/mL), 230 cells/μL; in experiment [4] (0 min, 2 μg/mL) it was 208 cells/μL; in experiment [4] (0 min, 4 μg/mL), 206 cells/μL; in experiment [4] (0 min, 8 μg/mL), 204 cells/μL; in experiment [4] (0 min, 16 μg/mL) it was 208 cells/μL. Further, the bacterial counts turned out to be 210 cells/μL in experiment [4] (0 min, 32 μg/mL); 220 cells/μL in experiment [4] (0 min, 64 μg/mL); 212 cells/μL in experiment [4] (0 min, 128 μg/mL); 207 cells/μL in [4] (0 min, 256 μg/mL); 807 cells/μL in [4] (60 min, 0.5 μg/mL); 789 cells/μL in experiment [4] (60 min, 1 μg/mL). The bacterial counts stood at 811 cells/μL in experiment [4] (60 min, 2 μg/mL); 304 cells/μL in experiment [4] (60 min, 4 μg/mL); 250 cells/μL in experiment [4] (60 min, 8 μg/mL); 264 cells/μL in [4] (60 min, 16 μg/mL); 290 cells/μL in experiment [4] (60 min, 32 μg/mL); 278 cells/μL in experiment [4] (60 min, 64 μg/mL). Moreover, the bacterial counts in experiment [4] (60 min, 128 μg/mL) is 214 cells/μL; in experiment [4] (60 min, 256 μg/mL), 350 cells/μL; in [4] (90 min, 0.5 μg/mL), 1540 cells/μL; in [4] (90 min, 1 μg/mL) it was 1469 cells/μL; in experiment [4] (90 min, 2 μg/mL), 1511 cells/μL; in [4] (90 min, 4 μg/mL), 432 cells/μL. Further, the bacterial counts in [4] (90 min, 8 μg/mL) is given as 502 cells/μL; in experiment [4] (90 min, 16 μg/mL), 500 cells/μL; in [4] (90 min, 32 μg/mL) it was 491 cells/μL; in experiment [4] (90 min, 64 μg/mL) it was 489 cells/μL; in experiment [4] (90 min, 128 μg/mL), 367 cells/μL; in experiment [4] (90 min, 256 μg/mL), 460 cells/μL. The bacterial counts in experiment [4] (120 min, 0.5 μg/mL) was 2534 cells/μL; in experiment [4] (120 min, 1 μg/mL), 2456 cells/μL; in experiment [4] (120 min, 2 μg/mL), 2463 cells/μL; in experiment [4] (120 min, 4 μg/mL) it was 590 cells/μL; in experiment [4] (120 min, 8 μg/mL), 524 cells/μL; in experiment [4] (120 min, 16 μg/mL), 560 cells/μL. Further, the bacterial counts is reported as 578 cells/μL in experiment [4] (120 min, 32 μg/mL); 641 cells/μL in [4] (120 min, 64 μg/mL); 498 cells/μL in experiment [4] (120 min, 128 μg/mL); 512 cells/μL in experiment [4] (120 min, 256 μg/mL). The MIC in [4] (ATCC25922, resistance method, Escherichia coli ATCC 25922, read-out: minimum inhibitory concentration (MIC)) was determined as 4 µg/mL (≈ 11.4 µM); in experiment [5], 4 µg/mL (≈ 11.4 µM); in experiment [6] it was 2 µg/mL (≈ 5.72 µM); in [7], 4 µg/mL (≈ 11.4 µM).

For the compound Gentamicin, the “2 hMIC” value in [8] was 4. Besides, the “24 hMIC” value in [9] (setting [14]) is given as 8. The MIC, conventional drug susceptibility testing in [9] (setting [15]) is 8 µg/mL. Besides, the Living cell counts in experiment [10] (0.03 μg/mL) is given as 11879 cells/μL; in experiment [10] (0.06 μg/mL) it was 11426 cells/μL; in [10] (0.12 μg/mL), 10167 cells/μL; in experiment [10] (0.25 μg/mL), 10278 cells/μL; in [10] (0.5 μg/mL), 10971 cells/μL; in [10] (1 μg/mL), 10654 cells/μL. Also, the Living cell counts in experiment [10] (2 μg/mL) is 10549 cells/μL; in [10] (4 μg/mL) it was 10876 cells/μL; in experiment [10] (8 μg/mL), 1876 cells/μL; in experiment [10] (16 μg/mL), 880 cells/μL. The same compound displayed an MIC, rapid drug susceptibility testing of living cells in experiment [10] (setting [16]) of 8 µg/mL.

For Penicillin, the “2 hMIC” value in experiment [11] is 1. The “24 hMIC” value in experiment [12] (setting [14]) is 2. The same compound returned an MIC, conventional drug susceptibility testing in experiment [12] (setting [15]) of 2 µg/mL. Also, the Living cell counts in [13] (0.03 μg/mL) is 13789 cells/μL; in experiment [13] (0.06 μg/mL) it was 13679 cells/μL; in experiment [13] (0.12 μg/mL), 12958 cells/μL; in experiment [13] (0.25 μg/mL) it was 12088 cells/μL; in experiment [13] (0.5 μg/mL), 11105 cells/μL; in [13] (1 μg/mL), 3085 cells/μL. Moreover, the Living cell counts worked out at 1076 cells/μL in experiment [13] (2 μg/mL), 798 cells/μL in experiment [13] (4 μg/mL), 683 cells/μL in experiment [13] (8 μg/mL) and 659 cells/μL in [13] (16 μg/mL). The compound further showed an MIC, rapid drug susceptibility testing of living cells in experiment [13] (setting [16]) of 1 µg/mL.
